Where a name gives a salt, the structure may show the parent alone.
biological target: human V1a receptor (Homo sapiens (Human), UniProt P37288); assay: human V1a receptor binding studies (3H-Vasopressin, SPA beads); details: membranes of HEK293 cells transiently transfected with human V1a receptor, Ki by Cheng-Prussoff
Outline: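 Membranes from HEK293 cells transiently expressing cloned human V1a receptor, bound on yttrium silicate SPA beads with 4 nM 3H-vasopressin (added stock) and serially diluted compound, 1 h at room temperature. Non-specific binding defined with cold vasopressin; IC50 by non-linear regression, Ki via Cheng-Prusoff.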

human V1a receptor, sequence (P37288 whole entry): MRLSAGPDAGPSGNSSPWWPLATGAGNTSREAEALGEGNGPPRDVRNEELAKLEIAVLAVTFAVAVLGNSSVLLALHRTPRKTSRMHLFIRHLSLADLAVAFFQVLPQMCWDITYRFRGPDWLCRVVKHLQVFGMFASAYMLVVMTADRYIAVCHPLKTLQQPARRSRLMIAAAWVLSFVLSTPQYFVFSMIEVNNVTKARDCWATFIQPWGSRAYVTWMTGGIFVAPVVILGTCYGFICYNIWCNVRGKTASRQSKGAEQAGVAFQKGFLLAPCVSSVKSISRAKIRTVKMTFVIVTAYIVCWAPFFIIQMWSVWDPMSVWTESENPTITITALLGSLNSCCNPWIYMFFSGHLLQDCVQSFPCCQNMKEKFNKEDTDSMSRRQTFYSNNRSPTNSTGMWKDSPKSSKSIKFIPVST

| pKi hV1a | SMILES |
| --- | --- |
| 9.2 | CC/C(=C1/SC(N2CCC3(CC2)OCc2ccccc23)=NC1=O)c1ccc(Cl)nc1 [Example 133, (5Z)-5-[1-(6-chloropyridin-3-yl)propylidene]-2-(1′H,3H-spiro[2-benzofuran-1,4′-piperidin]-1′-yl)-1,3-thiazol-4(5H)-one] |
| 9.0 | C/C(=C1/SC(N2CCC3(CC2)OCc2ccccc23)=NC1=O)c1ccccc1F [Example 57, (5Z)-5-[1-(2-fluorophenyl)ethylidene]-2-(1′H,3H-spiro[2-benzofuran-1,4′-piperidin]-1′-yl)-1,3-thiazol-4(5H)-one] |
| 8.3 | C/C(=C1\SC(N2CCC3(CC2)OCc2ccccc23)=NC1=O)c1ccc(C)nc1 [Example 153, (5E)-5-[1-(6-methylpyridin-3-yl)ethylidene]-2-(1′H,3H-spiro[2-benzofuran-1,4′-piperidin]-1′-yl)-1,3-thiazol-4(5H)-one] |
| 8.9 | C/C(=C1/SC(N2CCC3(CC2)OCc2ccccc23)=NC1=O)c1ccccc1F [Example 40, (5E/Z)-5-[1-(2-fluorophenyl)ethylidene]-2-(1′H,3H-spiro[2-benzofuran-1,4′-piperidin]-1′-yl)-1,3-thiazol-4(5H)-one] |
| 7.8 | CC(C)/C(=C1\SC(N2CCC3(CC2)OCc2ccccc23)=NC1=O)c1ccc(Cl)cc1 [Example 154, (5E)-5-[1-(4-chlorophenyl)-2-methylpropylidene]-2-(1′H,3H-spiro[2-benzofuran-1,4′-piperidin]-1′-yl)-1,3-thiazol-4(5H)-one] |
| 9.3 | O=C1N=C(N2CCC3(CC2)OCc2ccccc23)S/C1=C1/CCCCc2ccccc21 [Example 47, (5Z)-2-(1′H,3H-spiro[2-benzofuran-1,4′-piperidin]-1′-yl)-5-(6,7,8,9-tetrahydro-5H-benzo[7]annulen-5-ylidene)-1,3-thiazol-4(5H)-one] |
| 8.2 | CC/C(=C1\SC(N2CCC3(CC2)OCc2ccccc23)=NC1=O)c1ccc(Cl)cc1 [Example 25, (5E)-5-[1-(4-chlorophenyl)propylidene]-2-(1′H,3H-spiro[2-benzofuran-1,4′-piperidin]-1′-yl)-1,3-thiazol-4(5H)-one] |
| 9.1 | O=C1N=C(N2CCC3(CC2)OCc2ccccc23)S/C1=C(\c1ccc(Cl)cc1)C(F)(F)F [Example 18, (5E)-5-[1-(4-chlorophenyl)-2,2,2-trifluoroethylidene]-2-(1′H,3H-spiro[2-benzofuran-1,4′-piperidin]-1′-yl)-1,3-thiazol-4(5H)-one] |
| 9.0 | O=C1N=C(N2CCC3(CC2)OCc2ccccc23)S/C1=C1/CCCc2ccc(Cl)cc21 [Example 20, (5E/Z)-5-(7-chloro-3,4-dihydronaphthalen-1 (2H)-ylidene)-2-(1′H,3H-spiro[2-benzofuran-1,4′-piperidin]-1′-yl)-1,3-thiazol-4(5H)-one] |
| 7.6 | C/C(=C1/SC(N2CCC3(CC2)OCc2ccccc23)=NC1=O)c1ccnc(C)c1 [Example 77, (5E/Z)-5-[1-(2-methylpyridin-4-yl)ethylidene]-2-(1′H,3H-spiro[2-benzofuran-1,4′-piperidin]-1′-yl)-1,3-thiazol-4(5H)-one] |

The next lines start with the compound.

| SMILES | pKi hV1a |
| --- | --- |
| C/C(=C1/SC(N2CCC3(CC2)OCc2ccccc23)=NC1=O)c1ccco1 [Example 35, (5Z)-5-[1-(furan-2-yl)ethylidene]-2-(1′H,3H-spiro[2-benzofuran-1,4′-piperidin]-1′-yl)-1,3-thiazol-4(5H)-one] | 8.9 |
| C/C(=C1/SC(N2CCC3(CC2)OCc2ccccc23)=NC1=O)c1cnc[nH]1 [Example 117, (5E/Z)-5-[1-(1H-imidazol-5-yl)ethylidene]-2-(1′H,3H-spiro[2-benzofuran-1,4′-piperidin]-1′-yl)-1,3-thiazol-4(5H)-one] | 7.3 |
| O=C1N=C(N2CCC3(CC2)OCc2ccccc23)SC1=C(C1CCCC1)C1CCCC1 [Example 118, 5-(dicyclopentylmethylidene)-2-(1′H,3H-spiro[2-benzofuran-1,4′-piperidin]-1′-yl)-1,3-thiazol-4(5H)-one] | 7.6 |
| O=C1N=C(N2CCC3(CC2)OCc2ccccc23)S/C1=C(\CO)c1ccccc1 [Example 127, (5Z)-5-(2-hydroxy-1-phenylethylidene)-2-(1′H,3H-spiro[2-benzofuran-1,4′-piperidin]-1′-yl)-1,3-thiazol-4(5H)-one] | 9.0 |
| O=C1N=C(N2CCC3(CC2)OCc2ccccc23)SC1=C1c2ccccc2Oc2ccccc21 [Example 103, 2-(1′H,3H-spiro[2-benzofuran-1,4′-piperidin]-1′-yl)-5-(9H-xanthen-9-ylidene)-1,3-thiazol-4(5H)-one] | 8.6 |
| [2H]C([2H])([2H])/C(=C1\SC(N2CCC3(CC2)OCc2ccccc23)=NC1=O)c1ccc(C)nc1 [Example 170, (5E)-5-[1-(6-methylpyridin-3-yl)(^2H3)ethylidene]-2-(1′H,3H-spiro[2-benzofuran-1,4′-piperidin]-1′-yl)-1,3-thiazol-4(5H)-one] | 8.0 |
| C/C(=C1/SC(N2CCC3(CC2)OCc2ncccc23)=NC1=O)c1cccnc1 [Example 165, (5E/Z)-5-[1-(pyridin-3-yl)ethylidene]-2-(1′H,7H-spiro[furo[3,4-b]pyridine-5,4′-piperidin]-1′-yl)-1,3-thiazol-4(5H)-one] | 7.5 |
| [2H]C([2H])([2H])/C(=C1\SC(N2CCC3(CC2)OCc2ccccc23)=NC1=O)c1ccccc1 [Example 174, (5E)-5-[1-phenyl(^2H3)ethylidene]-2-(1′H,3H-spiro[2-benzofuran-1,4′-piperidin]-1′-yl)-1,3-thiazol-4(5H)-one] | 8.7 |
| CC(C)(C)[Si](C)(C)OC/C(=C1\SC(N2CCC3(CC2)OC(=O)c2ccccc23)=NC1=O)c1ccccc1 [Example 141, 1′-[(5Z)-5-(2-{[tert-butyl(dimethyl)silyl]oxy}-1-phenylethylidene)-4-oxo-4,5-dihydro-1,3-thiazol-2-yl]-3H-spiro[2-benzofuran-1,4′-piperidin]-3-one] | 7.6 |
| C/C(CS(C)(=O)=O)=C1/SC(N2CCC3(CC2)OCc2ccccc23)=NC1=O [Example 121, (5E/Z)-5-[1-(methylsulfonyl)propan-2-ylidene]-2-(1′H,3H-spiro[2-benzofuran-1,4′-piperidin]-1′-yl)-1,3-thiazol-4(5H)-one] | 7.0 |
| C/C(=C1/SC(N2CCC3(CC2)OCc2ccccc23)=NC1=O)C1CCOCC1 [Example 78, (5E/Z)-2-(1′H,3H-spiro[2-benzofuran-1,4′-piperidin]-1′-yl)-5-[1-(tetrahydro-2H-pyran-4-yl)ethylidene]-1,3-thiazol-4(5H)-one] | 7.9 |
| COc1ccc(/C(C)=C2\SC(N3CCC4(CC3)OCc3ccccc34)=NC2=O)cn1 [Example 85, (5E/Z)-5-[1-(6-methoxypyridin-3-yl)ethylidene]-2-(1′H,3H-spiro[2-benzofuran-1,4′-piperidin]-1′-yl)-1,3-thiazol-4(5H)-one] | 8.4 |
| O=C1N=C(N2CCC3(CC2)OCc2ccccc23)SC1=C(c1ccc(F)cc1)c1ccc(F)cc1 [Example 101, 5-[bis(4-fluorophenyl)methylidene]-2-(1′H,3H-spiro[2-benzofuran-1,4′-piperidin]-1′-yl)-1,3-thiazol-4(5H)-one] | 8.0 |
| C/C(=C1/SC(N2CCC3(CC2)OCc2ncccc23)=NC1=O)c1ccc(C)nc1 [Example 166, (5E/Z)-5-[1-(6-methylpyridin-3-yl)ethylidene]-2-(1′H,7H-spiro[furo[3,4-b]pyridine-5,4′-piperidin]-1′-yl)-1,3-thiazol-4(5H)-one] | 7.1 |
| CC(C)(C)OC(=O)N1CCC/C(=C2/SC(N3CCC4(CC3)OCc3ccccc34)=NC2=O)CC1 [Example 80, tert-butyl (4E/Z)-4-[4-oxo-2-(1′H,3H-spiro[2-benzofuran-1,4′-piperidin]-1′-yl)-1,3-thiazol-5(4H)-ylidene]azepane-1-carboxylate] | 7.1 |
| CC(C)/C(=C1\SC(N2CCC3(CC2)OC(=O)c2ccccc23)=NC1=O)c1ccc(Cl)nc1 [Example 148, 1′-{(5E)-5-[1-(6-chloropyridin-3-yl)-2-methylpropylidene]-4-oxo-4,5-dihydro-1,3-thiazol-2-yl}-3H-spiro[2-benzofuran-1,4′-piperidin]-3-one] | 6.8 |
| C/C(=C1\SC(N2CCC3(CC2)OCc2ccccc23)=NC1=O)c1c(C)noc1C [Example 106, (5E)-5-[1-(3,5-dimethyl-1,2-oxazol-4-yl)ethylidene]-2-(1′H,3H-spiro[2-benzofuran-1,4′-piperidin]-1′-yl)-1,3-thiazol-4(5H)-one] | 7.3 |
| C/C(CNC(=O)OC(C)(C)C)=C1\SC(N2CCC3(CC2)OCc2ccccc23)=NC1=O [Example 65, tert-butyl {(2E)-2-[4-oxo-2-(1′H,3H-spiro[2-benzofuran-1,4′-piperidin]-1′-yl)-1,3-thiazol-5(4H)-ylidene]propyl}carbamate] | 7.7 |
| CC(C)(C)[Si](C)(C)OC/C(=C1/SC(N2CCC3(CC2)OCc2ccccc23)=NC1=O)c1ccccc1 [Example 123, (5E)-5-(2-{[tert-butyl(dimethyl)silyl]oxy}-1-phenylethylidene)-2-(1′H,3H-spiro[2-benzofuran-1,4′-piperidin]-1′-yl)-1,3-thiazol-4(5H)-one] | 8.5 |
| O=C1N=C(N2CCC3(CC2)OC(=O)c2ccccc23)S/C1=C(\CO)c1ccccc1 [Example 142, 1′-[(5Z)-5-(2-hydroxy-1-phenylethylidene)-4-oxo-4,5-dihydro-1,3-thiazol-2-yl]-3H-spiro[2-benzofuran-1,4′-piperidin]-3-one] | 8.4 |

same assay, conditions: membranes of HEK293 cells transiently transfected with human V1a receptor, Ki by Cheng-Prussoff, read-out: pKi hV1a (converted)

| Ki [nM] | SMILES |
| --- | --- |
| 5.01 | NCC(=C1SC(N2CCC3(CC2)OCc2ccccc23)=NC1=O)c1ccccc1 (racemic) [Example 160, (5E/Z)-5-(2-amino-1-phenylethylidene)-2-(1′H,3H-spiro[2-benzofuran-1,4′-piperidin]-1′-yl)-1,3-thiazol-4(5H)-one trifluoroacetate] |
